Columns and labels:
[1] = xn = mol fraction of the nth substance listed; settings: 313.15 K, Fluid (supercritical or subcritical phases), Vibrating tube method
[2] = refractive index (Na D-line) (dimensionless); settings: 298.15 K; 101.33 kPa; Liquid; Standard Abbe refractometry
[3] = Vibrating tube method

O=C=O [carbon dioxide] + CCCCO
[1], x1 = 1
Settings	mass density [kg/m3]
1000 kPa	17.9
2000 kPa	37.1
3000 kPa	58.7
4000 kPa	83.5
5000 kPa	112.7
6000 kPa	148.8
7000 kPa	197.3
8000 kPa	276.7
9000 kPa	483.4
10000 kPa	627.4

CCCCO [butan-1-ol]
Settings	refractive index
[2]	1.3973

[3], Liquid
Settings	mass density [kg/m3]
298.15 K, 101.33 kPa	805.8
313.15 K, 1000 kPa	794.9
313.15 K, 2000 kPa	795.6
313.15 K, 3000 kPa	796.3
313.15 K, 4000 kPa	797
313.15 K, 5000 kPa	797.6
313.15 K, 6000 kPa	798.3
313.15 K, 7000 kPa	798.9
313.15 K, 8000 kPa	799.6
313.15 K, 9000 kPa	800.2
313.15 K, 10000 kPa	800.9

CCCCO [butan-1-ol] + O=C=O
[1]
Settings	mass density [kg/m3]
1000 kPa, x2 = 0	794.9
2000 kPa, x2 = 0	795.6
2000 kPa, x2 = 0.103	802.2
3000 kPa, x2 = 0	796.3
3000 kPa, x2 = 0.103	803
4000 kPa, x2 = 0	797
4000 kPa, x2 = 0.103	803.8
4000 kPa, x2 = 0.204	810.6
5000 kPa, x2 = 0	797.6
5000 kPa, x2 = 0.103	804.6
5000 kPa, x2 = 0.204	811.6
5000 kPa, x2 = 0.3	817
6000 kPa, x2 = 0	798.3
6000 kPa, x2 = 0.103	805.4
6000 kPa, x2 = 0.204	812.4
6000 kPa, x2 = 0.3	818.1
7000 kPa, x2 = 0	798.9
7000 kPa, x2 = 0.103	806.2
7000 kPa, x2 = 0.204	813.4
7000 kPa, x2 = 0.3	819.1
7000 kPa, x2 = 0.404	825.1
7000 kPa, x2 = 0.503	829.1
8000 kPa, x2 = 0	799.6
8000 kPa, x2 = 0.103	806.9
8000 kPa, x2 = 0.204	814.3
8000 kPa, x2 = 0.3	820.2
8000 kPa, x2 = 0.404	826.5
8000 kPa, x2 = 0.503	830.9
8000 kPa, x2 = 0.6	830.9
8000 kPa, x2 = 0.703	824.9
9000 kPa, x2 = 0	800.2
9000 kPa, x2 = 0.103	807.7
9000 kPa, x2 = 0.204	815.2
9000 kPa, x2 = 0.3	821.2
9000 kPa, x2 = 0.404	827.8
9000 kPa, x2 = 0.503	832.6
9000 kPa, x2 = 0.6	833.4
9000 kPa, x2 = 0.703	829.1
9000 kPa, x2 = 0.802	810.5
9000 kPa, x2 = 0.9	762.6
9000 kPa, x2 = 0.95	704.5
10000 kPa, x2 = 0	800.9
10000 kPa, x2 = 0.103	808.4
10000 kPa, x2 = 0.204	816.1
10000 kPa, x2 = 0.3	822.3
10000 kPa, x2 = 0.404	829.1
10000 kPa, x2 = 0.503	834.3
10000 kPa, x2 = 0.6	835.8
10000 kPa, x2 = 0.703	833.1
10000 kPa, x2 = 0.802	817.8
10000 kPa, x2 = 0.9	779.1
10000 kPa, x2 = 0.95	735.5

O=C=O [carbon dioxide]
[3], 313.15 K, Fluid (supercritical or subcritical phases)
Settings	mass density [kg/m3]
1000 kPa	17.9
2000 kPa	37.1
3000 kPa	58.7
4000 kPa	83.5
5000 kPa	112.7
6000 kPa	148.8
7000 kPa	197.3
8000 kPa	276.7
9000 kPa	483.4
10000 kPa	627.4
